Values after ≈ are worked out from the molar mass of the structure shown. “Also recorded” adds a separate entry of the source.
Experiments:
Assay type in all cases: physicochemical
[1] = Approximate solubility of starting material at RT
[2] = Storage stability of sepiapterin polymorph forms, HPLC purity; parameters: Impurity RRT 1.06 (HPLC) / Impurity RRT 1.08 (HPLC) / Impurity RRT 1.17 (HPLC) / Impurity RRT 1.21 (HPLC) / Impurity RRT 1.25 (HPLC) / Impurity RRT 0.62 (HPLC) / Impurity RRT 0.89 (HPLC) / Impurity RRT 0.95 (HPLC) / Impurity RRT 0.60 (HPLC): unit not given here; conditions: for % of Initial / Purity (area %): 10% RH
Protocol: (§1) Form A and F samples were placed in chambers with silica gel to remove water (the relative humidity was measured to be ˜10% RH) at different temperatures. Form D samples were placed in chambers with water (relative humidity was estimated to be ˜100% RH) at different temperatures.
(§2) The HPLC purities and XRD patterns were obtained for each of Form A/F/D samples stored at various temperatures.
Samples of sepiapterin free base polymorph Forms D, F, and A were stored at room temperature (RT), 35° C., and 50° C. The samples were analyzed by HPLC at 1 week and 4 week intervals.

[3] = Storage stability of sepiapterin polymorph forms, form change by XRD; conditions: 10% RH
Protocol: as §1, §2

[4] = Stability of crystalline Form A to grinding and sieving (XRPD); conditions: mortar and pestle, 140 mesh sieve
Protocol: A weight loss of 5.3% was observed up to 150° C. on TGA. […] (peak temperature). The starting material contained large particles with size over 100 μm. It was ground and characterized by XRPD, TGA and DSC. […] A weight loss of 1.9% was observed after N2 purging for 30 min to remove the absorbed water, followed by a second-step weight loss of 13.7% from 30° C. to 150° C. on TGA. […] (peak temperature).
Crystalline form A of sepiapterin of the invention was subjected to grinding and sieving process comprising grinding with a mortar and pestle and passing the material through a 140 mesh sieve. […] This process was repeated until all material was passed through the sieve.

[5] = 35° C./10% RH, 1 w, listed as Polymorph A
[6] = 35° C./10% RH, 4 w, listed as Polymorph A
[7] = 50° C./10% RH, 1 w, listed as Polymorph A
[8] = 50° C./10% RH, 4 w, listed as Polymorph A
[9] = RT/10% RH, 1 w, listed as Polymorph A
[10] = RT/10% RH, 4 w, listed as Polymorph A

Work on `C[C@H](O)C(=O)C1=Nc2c(nc(N)[nH]c2=O)NC1` [Form A, sepiapterin] yielded a solubility ([1]; organic solvent or mixture, 1,4-Dioxane, RT) of under 1700 µg/mL, a solubility ([1]; organic solvent or mixture, 2-MeTHF, RT) of under 2000 µg/mL and a solubility ([1]; organic solvent or mixture, ACN, RT) of under 1700 µg/mL. It also gave a solubility ([1]; organic solvent or mixture, Acetone, RT) of under 1800 µg/mL, a solubility ([1]; organic solvent or mixture, CHCl3, RT) of under 1600 µg/mL and a solubility ([1]; organic solvent or mixture, DCM, RT) of under 1500 µg/mL. It also gave a solubility ([1]; organic solvent or mixture, DMAc, RT) of over 28000 µg/mL, a solubility ([1]; organic solvent or mixture, DMSO, RT) of over 34000 µg/mL and a solubility ([1]; organic solvent or mixture, EtOAc, RT) of under 2500 µg/mL. For the same molecule, the solubility ([1]; organic solvent or mixture, EtOH, RT) was under 1500 µg/mL, the solubility ([1]; organic solvent or mixture, IPA, RT) was under 1300 µg/mL and the solubility ([1]; organic solvent or mixture, IPAc, RT) was under 2700 µg/mL. It also gave a solubility ([1]; organic solvent or mixture, MIBK, RT) of under 2000 µg/mL, a solubility ([1]; organic solvent or mixture, MTBE, RT) of under 2000 µg/mL and a solubility ([1]; organic solvent or mixture, MeOH, RT) of 1700 to 3400 µg/mL (≈ 7.17 to 14.3 mM). For the same molecule, the solubility ([1]; organic solvent or mixture, NMP, RT) was over 48000 µg/mL, the solubility ([1]; organic solvent or mixture, THF, RT) was under 1900 µg/mL and the solubility ([1]; organic solvent or mixture, Toluene, RT) was under 2400 µg/mL. The solubility ([1]; organic solvent or mixture, n-Heptane, RT) was under 2100 µg/mL, the solubility ([1]; water, H2O, RT) was 1600 to 3200 µg/mL (≈ 6.74 to 13.5 mM) and the “Impurity RRT 0.62 (HPLC)” value ([2]; 35° C./10% RH, 1 w) was 0.24. For the same molecule, the “Impurity RRT 0.89 (HPLC)” value ([2]; 35° C./10% RH, 1 w) was under 0.05, the “Impurity RRT 1.06 (HPLC)” value ([2]; 35° C./10% RH, 1 w) was under 0.05 and the “Impurity RRT 1.21 (HPLC)” value ([2]; 35° C./10% RH, 1 w) was under 0.05. The “Impurity RRT 1.25 (HPLC)” value ([2]; 35° C./10% RH, 1 w) was under 0.05, the “Impurity RRT 0.95 (HPLC)” value [2, 5] was 1.36 and the “Impurity RRT 1.08 (HPLC)” value [2, 5] was 0.28. For the same molecule, the “Impurity RRT 1.17 (HPLC)” value [2, 5] was 0.16, the “Sepiapterin RRT 1.00 (HPLC), amount of sepiapterin” value (shortened to “Sepiapterin RRT 1.00 (HPLC), amount”) [2, 5] was 97.97% and the “Impurity RRT 0.62 (HPLC)” value ([2]; 35° C./10% RH, 4 w) was 1.03. For the same molecule, the “Impurity RRT 0.89 (HPLC)” value ([2]; 35° C./10% RH, 4 w) was under 0.05, the “Impurity RRT 1.06 (HPLC)” value ([2]; 35° C./10% RH, 4 w) was under 0.05 and the “Impurity RRT 1.08 (HPLC)” value ([2]; 35° C./10% RH, 4 w) was under 0.05. The “Impurity RRT 1.21 (HPLC)” value ([2]; 35° C./10% RH, 4 w) was under 0.05, the “Impurity RRT 1.25 (HPLC)” value ([2]; 35° C./10% RH, 4 w) was under 0.05 and the “Impurity RRT 0.95 (HPLC)” value [2, 6] was 2.70. The “Impurity RRT 1.17 (HPLC)” value [2, 6] was 0.16, the “Sepiapterin RRT 1.00 (HPLC), amount” value [2, 6] was 96.06% and the “Impurity RRT 0.62 (HPLC)” value ([2]; 50° C./10% RH, 1 w) was 0.68. For the same molecule, the “Impurity RRT 0.89 (HPLC)” value ([2]; 50° C./10% RH, 1 w) was under 0.05, the “Impurity RRT 1.06 (HPLC)” value ([2]; 50° C./10% RH, 1 w) was 0.45 and the “Impurity RRT 1.21 (HPLC)” value ([2]; 50° C./10% RH, 1 w) was under 0.05. For the same molecule, the “Impurity RRT 1.25 (HPLC)” value ([2]; 50° C./10% RH, 1 w) was under 0.05, the “Impurity RRT 0.95 (HPLC)” value [2, 7] was 3.48 and the “Impurity RRT 1.08 (HPLC)” value [2, 7] was 0.08. The “Impurity RRT 1.17 (HPLC)” value [2, 7] was 0.16, the “Sepiapterin RRT 1.00 (HPLC), amount” value [2, 7] was 95.15% and the “Impurity RRT 0.62 (HPLC)” value ([2]; 50° C./10% RH, 4 w) was 2.59. For the same molecule, the “Impurity RRT 0.89 (HPLC)” value ([2]; 50° C./10% RH, 4 w) was 0.06, the “Impurity RRT 1.06 (HPLC)” value ([2]; 50° C./10% RH, 4 w) was under 0.05 and the “Impurity RRT 1.17 (HPLC)” value ([2]; 50° C./10% RH, 4 w) was 0.17. For the same molecule, the “Impurity RRT 1.21 (HPLC)” value ([2]; 50° C./10% RH, 4 w) was 0.06, the “Impurity RRT 1.25 (HPLC)” value ([2]; 50° C./10% RH, 4 w) was 0.11 and the “Impurity RRT 0.95 (HPLC)” value [2, 8] was 7.67. The “Impurity RRT 1.08 (HPLC)” value [2, 8] was 0.85, the “Sepiapterin RRT 1.00 (HPLC), amount” value [2, 8] was 88.49% and the “Sepiapterin RRT 1.00 (HPLC), amount” value ([2]; 50° C./10% RH, 4 w, listed as polymorph A) was 88.49%. The “Impurity RRT 0.89 (HPLC)” value ([2]; Initial) was under 0.05, the “Impurity RRT 1.06 (HPLC)” value ([2]; Initial) was under 0.05 and the “Impurity RRT 1.08 (HPLC)” value ([2]; Initial) was under 0.05. For the same molecule, the “Impurity RRT 1.17 (HPLC)” value ([2]; Initial) was 0.17, the “Impurity RRT 1.21 (HPLC)” value ([2]; Initial) was under 0.05 and the “Impurity RRT 1.25 (HPLC)” value ([2]; Initial) was under 0.05. For the same molecule, the “Impurity RRT 0.62 (HPLC)” value ([2]; Initial, listed as Polymorph A) was 0.08, the “Impurity RRT 0.95 (HPLC)” value ([2]; Initial, listed as Polymorph A) was 0.42 and the “Sepiapterin RRT 1.00 (HPLC), amount” value ([2]; Initial, listed as Polymorph A) was 99.33%. For the same molecule, the “Sepiapterin RRT 1.00 (HPLC), amount” value ([2]; Initial, listed as polymorph A) was 99.33%, the “Impurity RRT 0.62 (HPLC)” value ([2]; RT/10% RH, 1 w) was 0.16 and the “Impurity RRT 0.89 (HPLC)” value ([2]; RT/10% RH, 1 w) was under 0.05. The “Impurity RRT 1.06 (HPLC)” value ([2]; RT/10% RH, 1 w) was under 0.05, the “Impurity RRT 1.17 (HPLC)” value ([2]; RT/10% RH, 1 w) was 0.16 and the “Impurity RRT 1.21 (HPLC)” value ([2]; RT/10% RH, 1 w) was under 0.05. The “Impurity RRT 1.25 (HPLC)” value ([2]; RT/10% RH, 1 w) was under 0.05, the “Impurity RRT 0.95 (HPLC)” value [2, 9] was 0.77 and the “Impurity RRT 1.08 (HPLC)” value [2, 9] was 0.11. The “Sepiapterin RRT 1.00 (HPLC), amount” value [2, 9] was 98.80%, the “Impurity RRT 0.62 (HPLC)” value ([2]; RT/10% RH, 4 w) was 0.37 and the “Impurity RRT 0.89 (HPLC)” value ([2]; RT/10% RH, 4 w) was under 0.05. For the same molecule, the “Impurity RRT 1.06 (HPLC)” value ([2]; RT/10% RH, 4 w) was under 0.05, the “Impurity RRT 1.08 (HPLC)” value ([2]; RT/10% RH, 4 w) was under 0.05 and the “Impurity RRT 1.17 (HPLC)” value ([2]; RT/10% RH, 4 w) was 0.16. For the same molecule, the “Impurity RRT 1.21 (HPLC)” value ([2]; RT/10% RH, 4 w) was under 0.05, the “Impurity RRT 1.25 (HPLC)” value ([2]; RT/10% RH, 4 w) was under 0.05 and the “Impurity RRT 0.95 (HPLC)” value [2, 10] was 1.29. The “Sepiapterin RRT 1.00 (HPLC), amount” value [2, 10] was 98.18%, the “Purity of initial samples by HPLC” value ([2]; initial, before storage, listed as Form λ) was 99.3 area % and the “% of Initial” value ([2]; storage 1 week, 35° C.) was 98.6%. The “Purity (area %)” value ([2]; storage 1 week, 35° C.) was 98.0 area %, the “% of Initial” value ([2]; storage 1 week, 50° C.) was 95.8% and the “Purity (area %)” value ([2]; storage 1 week, 50° C.) was 95.2 area %. For the same molecule, the “% of Initial” value ([2]; storage 1 week, RT) was 99.5%, the “Purity (area %)” value ([2]; storage 1 week, RT) was 98.8 area % and the “% of Initial” value ([2]; storage 4 weeks, 35° C.) was 96.7%. For the same molecule, the “Purity (area %)” value ([2]; storage 4 weeks, 35° C.) was 96.1 area %, the “% of Initial” value ([2]; storage 4 weeks, 50° C.) was 89.1% and the “Purity (area %)” value ([2]; storage 4 weeks, 50° C.) was 88.5 area %. For the same molecule, the “% of Initial” value ([2]; storage 4 weeks, RT) was 98.8%, the “Purity (area %)” value ([2]; storage 4 weeks, RT) was 98.2 area % and the “Stability on storage as determined by HPLC, comparison of forms in words” value ([2]; storage up to 4 weeks at RT, 35° C., 50° C.) was “significantly less stability”. For the same molecule, the Form change ([3]; storage 1 week, 35° C.) was “No”, the Form change ([3]; storage 1 week, 50° C.) was “No” and the Form change ([3]; storage 1 week, RT) was “No”. The Form change ([3]; storage 4 weeks, 35° C.) was “No”, the Form change ([3]; storage 4 weeks, 50° C.) was “No” and the Form change ([3]; storage 4 weeks, RT) was “No”. For the same molecule, the “Physical form stability to grinding and sieving (XRPD)” value [4] was “no form change was observed after grinding; also recorded: stable to the grinding and sieving process; also recorded: confirms the physical form stability”.

— patent publication US12325706B2, “Polymorphic form of sepiapterin” (PTC Therapeutics MP, Inc., priority 2016, dated 2025)
